In the NIST ThermoML archive (doi:10.1016/j.fluid.2008.06.012):
Numbers after ± are expanded uncertainties.

How the values were obtained:
[1] = 298.15 K, 101.33 kPa, Liquid
[2] = refractive index (Na D-line) (dimensionless); details: 298.15 K; 101.33 kPa; Liquid; Standard Abbe refractometry

Row | mass density [1] | refractive index [2] | mass density ([1]; Vibrating tube method) | SMILES
1 | 1058.59 ± 0.28 kg/m3 | 1.5253 ± 0.00068 | – | c1ccsc1 [thiophene]
2 | 745.32 ± 0.91 kg/m3 | 1.42011 ± 0.0007 | – | CCCCCCCCCCCC [dodecane]
3 | 771.15 ± 0.85 kg/m3 | 1.43232 ± 0.0007 | – | CCCCCCCCCCCCCCCC [hexadecane]
4 | 679.47 ± 0.66 kg/m3 | 1.38517 ± 0.00068 | – | CCCCCCC [heptane]
5 | – | 1.47903 ± 0.0012 | 1238.17 ± 8.3 kg/m3 | CCOS(=O)(=O)[O-].CCn1cc[n+](C)c1 [1-ethyl-3-methylimidazolium ethyl sulfate]
6 | 655.06 ± 1.1 kg/m3 | 1.37287 ± 0.0007 | – | CCCCCC [hexane]
